Experimental data: article PMC12339163, “Combining Plant Bioactives With Antibiotics for Enhanced Antibiofilm Activity Against Uropathogenic Staphylococcus spp. and Cytotoxicity Evaluation” (Advances in Pharmacological and Pharmaceutical Sciences, 2025)
In brackets after ≈: the same amount, converted by molar mass. Several values for one entry are separate records, joined by “and”; a condition that tells them apart may be missing. Identical values can stand only once. Like-named read-outs stand apart in the source and are kept apart here.

Tests used:
S. aureus = test: MIC and MBC, broth microdilution; type: cell-based, Staphylococcus aureus; details: Staphylococcus aureus, geometric mean, S. aureus (n = 3); for MBC: read-out: MBC; for MIC: read-out: MIC
Method: Seven clinical isolates of Staphylococcus spp. including 2 S. aureus, 3 S. saprophyticus, and 2 S. epidermidis were used. They were isolated from urine samples in our previous study. Two reference strains (S. aureus ATCC1026 and S. epidermidis ATCC35984) obtained from the American Type Culture Collection were also included. They were kept in the mixture of glycerol and Mueller Hinton Broth (MHB) (1:1) at −20°C, and the activation was achieved using the streak technique on Mueller Hinton agar (MHA) medium.
The MICs of ATBs and NPs were determined by the broth microdilution method as previously described. NPs and ATBs were, respectively, prepared at 4096 µg/mL and 512 µg/mL and serially diluted twofold with MHB in a 96-well microplate at a volume of 100 µL. Then, the wells were filled with 100 µL of inoculum (1.5 × 10^6 CFU/mL) to give final concentrations ranging from 1024 µg/mL to 0.5 µg/mL and 128 µg/mL to 0.062 µg/mL of NPs and ATBs, respectively. The microplates were incubated for 24 h at 37°C. Wells containing only bacterial inoculum were used as the negative control. After incubation, a volume of 40 µL of INT solution (0.2 mg/mL) was added to each well, and the microplate was incubated at 37°C for 30 min. Viable bacteria cells change the yellow dye of INT to a pink color. The MIC was considered as the lowest concentration of the sample at which there was no change in the coloration of the medium, corresponding to the complete inhibition of microbial growth.
All tests were performed in triplicate.

S. aureus biofilm = test: Biofilm eradication assay (MBEC, MTT); type: cell-based, Staphylococcus aureus; details: Staphylococcus aureus, 24 h; geometric mean, S. aureus (n = 3)
Method: (§1) The determination of the biofilm eradication potential of NPs and ATBs was performed as previously described. Briefly, 100 µL of bacterial inoculum (1.5 × 10^6 CFU/mL) and 100 µL of MHB + 1% glucose were introduced into the microplate, incubated at 37°C for 24 h, and the microplate was gently emptied and washed three times with PBS. Then, 200 µL of ATBs or NPs at respective concentrations ranging from 8 to 1024 µg/mL and from 16 to 2048 µg/mL were incubated at 37°C for 24 h. Once incubation was completed, the microplate was processed as described above, and the percentage of biofilm eradication was calculated using the formula below. The minimal biofilm eradicating concentration (MBEC) was recorded as the lowest concentration of the test sample that reduces 100% of biofilm:(2) % biofilm eradication=ODcontrol−ODblank−ODtest−ODblank/ODcontrol−ODblank×100.

S. saprophyticus biofilm = test: Biofilm eradication assay (MBEC, MTT); type: cell-based, Staphylococcus saprophyticus; details: Staphylococcus saprophyticus, 24 h; geometric mean, S. saprophyticus (n = 3)
Method: as §1

S. epidermidis biofilm = test: Biofilm eradication assay (MBEC, MTT); type: cell-based, Staphylococcus epidermidis; details: Staphylococcus epidermidis, 24 h; geometric mean, S. epidermidis (n = 3)
Method: as §1

[1] = system: Staphylococcus aureus biofilm; test: Checkerboard combination assay, biofilm inhibition; type: cell-based
Method: (§2) The effect of the combination of ATBs with NPs on biofilm formation was evaluated by determining the FICI, as described above for planktonic cells, except that the MHB was supplemented with 1% glucose.
(§3) The lowest MBICs of ATBs or NPs that inhibited metabolic activity in the biofilm were determined as described above. The FICI was used to perform the effect of combination and calculated as follows: FICI: (MBIC of ATBs in combinations/MBIC of ATBs alone) + (MBIC of NP in the combinations/MBIC of NP alone). FICI was interpreted as indicated above.

[2] = system: Staphylococcus epidermidis biofilm; test: Checkerboard combination assay, biofilm inhibition; type: cell-based
Method: as §2, §3

[3] = system: Staphylococcus saprophyticus biofilm; test: Checkerboard combination assay, biofilm inhibition; type: cell-based
Method: as §2, §3

Raw 264.7 macrophages = test: Cytotoxicity, MTT assay; type: cell-based; details: Raw 264.7, MTT
Method: (§4) Two cell lines, including Raw 264.7 macrophages and the urinary epithelial cell line UROtsa obtained from the American Type Culture Collection (Rockville, MD, USA), were used. They were cultured in Dulbecco's modified Eagle's medium (DMEM), which was supplemented with 10% fetal bovine serum (FBS) and 1% penicillin, streptomycin, and fungizone (PSF). They were then grown at 37°C in a humidified environment containing 5% CO2.
(§5) The cytotoxicity of the selected synergistic combinations, as well as the individual constituents of combinations, against the abovementioned cell lines was performed by the MTT assay as previously described. Briefly, cells from each line were harvested in the logarithmic phase using trypsin (0.05% trypsin, 0.02% EDTA in PBS). Cell suspension was diluted with an appropriate growth medium to obtain a cell density of 10^4 cells/well. A 100 µL aliquot of each suspension was seeded into 96-well cell culture plates and incubated at 37°C in an atmosphere of 5% CO2 and 95% relative humidity. After 24 h of incubation, 100 µL of samples (ATBs and NPs) at concentrations varying from 0.01, 0.1, 1, 10, 100, and 1000, as well as the synergistic combinations (C1 to C5), was added to the wells containing the cells. Doxorubicin was used as a positive control. Appropriate controls with an equivalent concentration of DMSO were also included. Plates were incubated for 48 h, then the medium in each well was aspirated, and MTT solution (2 mg/mL in PBS) was diluted 1:10 with fresh medium and added to each well, and the plates were further incubated at 37°C for 4 h. Absorbance was measured on a BioTek microplate reader at 570 nm. The percentage of cell viability was calculated by comparing treated and untreated cells using the equation [39]:(3) cell viability %=ODtest/ODcontrol×100.
(§6) Then, the IC50 values of the samples having shown at least 50% inhibition were calculated by plotting the percentage of inhibition against the concentrations.

[4] = system: UROtsa urinary epithelial cells; test: Cytotoxicity, MTT assay; type: cell-based; details: 48 h
Method: as §4, §5, §6

[5] = S. aureus, biofilm inhibition, mean
[6] = antibiotic alone, S. aureus biofilm inhibition
[7] = S. epidermidis, biofilm inhibition, mean
[8] = antibiotic alone, S. epidermidis biofilm inhibition
[9] = S. saprophyticus, biofilm inhibition, mean
[10] = antibiotic alone, S. saprophyticus biofilm inhibition
[11] = Mus musculus, RAW264.7, 48 h, read-out: IC50
[12] = Epithelial cell, read-out: IC50
[13] = natural product alone, S. aureus biofilm inhibition
[14] = natural product alone, S. epidermidis biofilm inhibition
[15] = natural product alone, S. saprophyticus biofilm inhibition

Structure (SMILES) | MBC (S. aureus; antibiotics) [µg/mL] | MIC (S. aureus) [µg/mL] | minimal effective concentration (S. aureus biofilm) [µg/mL] | minimal effective concentration (S. saprophyticus biofilm) [µg/mL] | minimal effective concentration (S. epidermidis biofilm) [µg/mL] | MBIC alone, ATB [1, 6] [µg/mL] | MBIC alone, ATB [3, 10] [µg/mL] | MBC (S. aureus; natural products) [µg/mL] | MBIC alone, NPs [3, 9] [µg/mL] | MBIC alone, NPs [2, 14] [µg/mL] | further results
NCC[C@H](O)C(=O)N[C@@H]1C[C@H](N)[C@@H](O[C@H]2O[C@H](CN)[C@@H](O)[C@H](O)[C@H]2O)[C@H](O)[C@H]1O[C@H]1O[C@H](CO)[C@@H](O)[C@H](N)[C@H]1O [Amikacin, amikacin] | > 128 | 4.33 (≈ 7.39 µM) | 13.3 | 13.3 | 21.3 | 1.83 | 2.08 | – | – | – | MBIC alone, ATB [1, 5]: 1.83 µg/mL; MBIC alone, ATB [2, 7]: 3.08 µg/mL; MBIC alone, ATB [2, 8]: 3.08 µg/mL; MBIC alone, ATB [3, 9]: 2.08 µg/mL; IC50 (Raw 264.7 macrophages; [11]): > 1000 µg/mL; IC50 (Raw 264.7 macrophages; 48 h): — (IC50 > 1000 µg/mL); IC50 [4]: — (IC50 > 1000 µg/mL); IC50 [4, 12]: > 1000 µg/mL
COc1ccc2cc3[n+](cc2c1OC)CCc1cc2c(cc1-3)OCO2 [Berberine, berberine] | – | 139 | 149 | 171 | 171 | – | – | > 1020 | 106.66 | – | MBIC alone, NPs [1, 13]: 170.66 µg/mL; MBIC alone, NPs ([3]; natural product alone, S. saprophyticus biofilm inhibition, listed as Ber): 74.66 µg/mL and 85.33 µg/mL and 106.66 µg/mL
COc1cc(/C=C/C(=O)CC(=O)/C=C/c2ccc(O)c(OC)c2)ccc1O [Curcumin, curcumin] | – | – | 149 | 171 | 107 | – | – | > 1020 | 106.66 | 128 | MIC (S. aureus; 24 h): 244 µg/mL (≈ 661 µM); MBIC alone, NPs [2, 7]: 128 µg/mL; IC50 (Raw 264.7 macrophages; [11]): 94.4 µg/mL; IC50 [4, 12]: 51.9 µg/mL
C[C@H]1c2cccc(O)c2C(=O)C2=C(O)[C@]3(O)C(=O)C(C(N)=O)=C(O)[C@@H](N(C)C)[C@@H]3[C@@H](O)[C@@H]21 [Doxycycline, doxycycline] | 32.7 (≈ 73.5 µM) | 6.16 (≈ 13.9 µM) | 16 | 9.33 | 16 | 2.16 | 0.5 | – | – | – | MBIC alone, ATB ([2]; antibiotic alone, S. epidermidis biofilm inhibition, listed as Dox): 3.08 µg/mL and 3.41 µg/mL; MBIC alone, ATB [3, 9]: 0.5 µg/mL
CC[C@H]1OC(=O)[C@H](C)[C@@H](O[C@H]2C[C@@](C)(OC)[C@@H](O)[C@H](C)O2)[C@H](C)[C@@H](O[C@@H]2O[C@H](C)C[C@H](N(C)C)[C@H]2O)[C@](C)(O)C[C@@H](C)C(=O)[C@H](C)[C@@H](O)[C@]1(C)O [Erythromycin, erythromycin] | > 128 | 108 (≈ 147 µM) | 42.8 | 29.3 | 18.7 | 42.83 | 27.33 | – | – | – | MBIC alone, ATB [2, 8]: 24 µg/mL
O=C(O)c1cc(O)c(O)c(O)c1 [Gallic acid, 3,4,5-trihydroxybenzoic acid] | – | 427 (≈ 2510 µM) | 299 | 299 | 267 | – | – | > 1020 | – | 512 | MBIC alone, NPs [1, 13]: 512 µg/mL; MBIC alone, NPs [3, 15]: 426.66 µg/mL
CC1=CC(=O)c2c(O)cccc2C1=O [Plumbagin, plumbagin] | – | 6 (≈ 31.9 µM) | 32 | 10.7 | 10.7 | – | – | > 1020 | 16 | 8 | MBIC alone, NPs [1, 5]: 10.66 µg/mL; MBIC alone, NPs ([1]; natural product alone, S. aureus biofilm inhibition, listed as Pb): 10.66 µg/mL; MBIC alone, NPs [2, 7]: 8 µg/mL; MBIC alone, NPs [3, 15]: 6.66 µg/mL
O=c1c(O)c(-c2ccc(O)c(O)c2)oc2cc(O)cc(O)c12 [Quercetin, quercetin] | – | 341 (≈ 1130 µM) | 128 | 171 | 299 | – | – | > 1020 | – | – | MBIC alone, NPs ([1]; natural product alone, S. aureus biofilm inhibition, listed as Que): 426.66 µg/mL and 512 µg/mL and 362.66 µg/mL; MBIC alone, NPs ([2]; natural product alone, S. epidermidis biofilm inhibition, listed as Que): 512 µg/mL and 384 µg/mL; MBIC alone, NPs ([3]; natural product alone, S. saprophyticus biofilm inhibition, listed as Que): 426.66 µg/mL and 512 µg/mL
